Reference: patent US11884675B2, “Heterocyclic compounds as triggering receptor expressed on myeloid cells 2 agonists and methods of use” (AMGEN INC., priority 2020, dated 2024)

molecular target: hTREM2 (Homo sapiens, UniProt Q9NZC2); test: TREM2 agonist potency by Syk phosphorylation (AlphaLisa) in HEK293T-hTREM2 cells, used for Examples 306-429; assay type: cell-based; set-up: expressed in transfected cells; host or cells: HEK293T (HEK293T-hTREM2 cells); conditions: HEK293 Cells
Procedure, shortened: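 HEK293T cells expressing human TREM2 and DAP12, plated 20-24 h before, were exposed to compounds for 45 min at room temperature, then lysed. Phospho-Syk read by AlphaLisa; % activation from a standard curve and EC50 from a four-parameter log(agonist) fit.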

Chain of hTREM2 (Q9NZC2 19-230): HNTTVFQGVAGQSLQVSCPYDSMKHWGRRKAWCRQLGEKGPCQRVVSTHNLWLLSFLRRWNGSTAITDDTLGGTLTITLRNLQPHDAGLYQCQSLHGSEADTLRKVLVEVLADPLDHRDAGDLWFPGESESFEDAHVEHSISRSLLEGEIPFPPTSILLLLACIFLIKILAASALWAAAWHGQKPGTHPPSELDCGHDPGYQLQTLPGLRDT
Chain of hTREM2 (O43914 22-113 partner): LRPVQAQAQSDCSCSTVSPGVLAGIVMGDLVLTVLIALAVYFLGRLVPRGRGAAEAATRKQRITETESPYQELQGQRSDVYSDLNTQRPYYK

SMILES	EC50
Cc1cc([C@H]2CN(c3cc4nc(C)cnc4c(-c4ccc(F)cc4F)n3)CCO2)ccn1 [Example 334, (S)-4-(5-(2,4-difluorophenyl)-2-methylpyrido[3,4-b]pyrazin-7-yl)-2-(2-methylpyridin-4-yl)morpholine]	≤ 50 nM
COc1cc(C2CN(c3nc(-c4ccc(C(F)(F)F)nc4)c4nc(C)c(C)nc4n3)CCO2)ccn1 (centres unmarked) [Example 322, 4-(6,7-dimethyl-4-(6-(trifluoromethyl)pyridin-3-yl)pteridin-2-yl)-2-(2-methoxypyridin-4-yl)morpholine]	≤ 50 nM
Cc1cnc2c(-c3ccc(F)cc3F)nc(N3C[C@@H](C)O[C@@H](c4cnn(C5CC5)c4)C3)nc2n1 (racemic) [Example 371, 2-(1-cyclopropyl-1H-pyrazol-4-yl)-4-(4-(2,4-difluorophenyl)-7-methylpteridin-2-yl)-6-methylmorpholine]	≤ 50 nM
Cc1cc([C@H]2CN(c3nc(-c4cc(F)c(Cl)cc4F)c4nc(C)c(C)nc4n3)CCO2)ccn1 [Example 387, (2S)-4-[4-(4-chloro-2,5-difluoro-phenyl)-6,7-dimethyl-pteridin-2-yl]-2-(2-methyl-4-pyridyl)morpholine]	≤ 50 nM
Cc1nc2cc([C@H]3CCO[C@@H](c4cnn(C5CC5)c4)C3)nc(-c3ccc(F)cc3F)c2nc1C (racemic) [Example 393, 7-[2-(1-cyclopropylpyrazol-4-yl)tetrahydropyran-4-yl]-5-(2,4-difluorophenyl)-2,3-dimethyl-pyrido[3,4-b]pyrazine]	50 to 500 nM
Cc1cc([C@H]2C[C@@H](c3nc(-c4ccc(Cl)c(F)c4F)c4nc(C)c(C)nc4n3)CCO2)ccn1 [Example 397, 4-(4-chloro-2,3-difluorophenyl)-6,7-dimethyl-2-((2R,4S)-2-(2-methylpyridin-4-yl)tetrahydro-2H-pyran-4-yl)pteridine]	≤ 50 nM
Cc1cnc2c(C34CC(C(F)(F)F)(C3)C4)nc(N3C[C@H](C)O[C@@H](c4cnn(C5CC5)c4)C3)nc2n1 (racemic) [Example 355, 2-(1-cyclopropyl-1H-pyrazol-4-yl)-6-methyl-4-(7-methyl-4-(3-(trifluoromethyl)bicyclo[1.1.1]pentan-1-yl)pteridin-2-yl)morpholine]	50 to 500 nM
Cc1nc2cc(N3CCO[C@@H](c4cnn(C5CC5)c4)C3)nc(-c3ccc(Cl)cc3F)c2nc1C [Example 382, (2S)-4-[5-(4-chloro-2-fluoro-phenyl)-2,3-dimethyl-pyrido[3,4-b]pyrazin-7-yl]-2-(1-cyclopropylpyrazol-4-yl)morpholine]	≤ 50 nM
Cc1cnc2c(-c3ccc(F)cc3F)nc([C@H]3CCO[C@@H](c4cnn(C5CC5)c4)C3)cc2n1 (racemic) [Example 388, 5-(2,4-difluorophenyl)-2-methyl-7-[2-(1-cyclopropylpyrazol-4-yl)tetrahydropyran-4-yl]pyrido[3,4-b]pyrazine]	50 to 500 nM
Cc1cnc2c(-c3ccc(C(F)(F)F)nc3)nc(N3CCOC(c4cnn(C5CC5)c4)C3)cc2n1 (centres unmarked) [Example 340, 2-(1-cyclopropyl-1H-pyrazol-4-yl)-4-(2-methyl-5-(6-(trifluoromethyl)pyridin-3-yl)pyrido[3,4-b]pyrazin-7-yl)morpholine]	50 to 500 nM
Cc1cc(C2CN(c3nc(-c4cc(F)c(Cl)cc4F)c4nc(C)c(C)nc4n3)CCO2)ccn1 (centres unmarked) [Example 352, 4-(4-(4-chloro-2,5-difluorophenyl)-6,7-dimethylpteridin-2-yl)-2-(2-methylpyridin-4-yl)morpholine]	≤ 50 nM
Cc1nc2cc(N3C[C@@H](C)O[C@@H](c4cnn(C5CC5)c4)C3)nc(-c3ccc(F)cc3F)c2nc1C (racemic) [Example 358, 2-(1-cyclopropyl-1H-pyrazol-4-yl)-4-(5-(2,4-difluorophenyl)-2,3-dimethylpyrido[3,4-b]pyrazin-7-yl)-6-methylmorpholine]	≤ 50 nM
Cc1cc([C@H]2C[C@@H](c3nc(-c4ccc(C(F)(F)F)nc4)c4nc(C)c(C)nc4n3)CCO2)ccn1 (racemic) [Example 309, 6,7-dimethyl-2-(2-(2-methylpyridin-4-yl)tetrahydro-2H-pyran-4-yl)-4-(6-(trifluoromethyl)pyridin-3-yl)pteridine]	50 to 500 nM
Cc1cnc2c(C34CC(C(F)(F)F)(C3)C4)nc([C@@H]3CCO[C@@H](c4cnn(C5CC5)c4)C3)nc2n1 [Example 406, 2-((2R,4R)-2-(1-cyclopropyl-1H-pyrazol-4-yl)tetrahydro-2H-pyran-4-yl)-7-methyl-4-(3-(trifluoromethyl)bicyclo[1.1.1]pentan-1-yl)pteridine]	500 to 3000 nM
Cc1cc([C@H]2C[C@@H](c3cc4nc(C)c(C)cc4c(-c4ccc(F)cc4F)n3)CCO2)ccn1 (racemic) [Example 399, 5-(2,4-difluorophenyl)-2,3-dimethyl-7-[2-(2-methyl-4-pyridyl)tetrahydropyran-4-yl]-1,6-naphthyridine]	≤ 50 nM
Cc1nc2cc(N3C[C@@H](c4cnn(C5CC5)c4)O[C@@H](C)C3)nc(-c3ccc(F)cc3F)c2nc1C [Example 398, (2R,6S)-2-(1-cyclopropyl-1H-pyrazol-4-yl)-4-(5-(2,4-difluorophenyl)-2,3-dimethylpyrido[3,4-b]pyrazin-7-yl)-6-methylmorpholine]	≤ 50 nM
Cc1nc2nc(N3CC(C)OC(c4cnn(C5CC5)c4)C3)nc(-c3ccc(F)cc3F)c2nc1C (centres unmarked) [Example 369, 2-(1-cyclopropyl-1H-pyrazol-4-yl)-4-(4-(2,4-difluorophenyl)-6,7-dimethylpteridin-2-yl)-6-methylmorpholine]	≤ 50 nM
Cc1ccc2c(C(C)C)nc([C@H]3C[C@@H](C)O[C@@H](c4cnn(C5CC5)c4)C3)nc2n1 [Example 429, 2-((2R,4S,6R)-2-(1-cyclopropyl-1H-pyrazol-4-yl)-6-methyltetrahydro-2H-pyran-4-yl)-4-isopropyl-7-methylpyrido[2,3-d]pyrimidine]	500 to 3000 nM
Cc1cc(C2CC(c3cc4nc(C)c(C)cc4c(-c4ccc(Cl)cc4F)n3)CCO2)ccn1 (centres unmarked) [Example 327, 5-(4-chloro-2-fluorophenyl)-2,3-dimethyl-7-(2-(2-methylpyridin-4-yl)tetrahydro-2H-pyran-4-yl)-1,6-naphthyridine]	≤ 50 nM
Cc1cnc2c(C34CC(C(F)(F)F)(C3)C4)nc(N3C[C@@H](C)O[C@@H](c4cnn(C5CC5)c4)C3)cc2n1 (racemic) [Example 377, 2-(1-cyclopropylpyrazol-4-yl)-6-methyl-4-[2-methyl-5-[3-(trifluoromethyl)-1-bicyclo[1.1.1]pentanyl]pyrido[3,4-b]pyrazin-7-yl]morpholine]	50 to 500 nM
Cc1cc([C@H]2C[C@H](c3cc4nc(C)c(C)nc4c(-c4ccc(C(F)(F)F)nc4)n3)CCO2)ccn1 (racemic) [Example 306]	50 to 500 nM
Cc1cc([C@@H]2CN(c3cc4nc(C)cnc4c(-c4ccc(F)cc4F)n3)CCO2)ccn1 [Example 333, (R)-4-(5-(2,4-difluorophenyl)-2-methylpyrido[3,4-b]pyrazin-7-yl)-2-(2-methylpyridin-4-yl)morpholine]	500 to 3000 nM
Cc1cc(C2CN(c3cc4nc(C)c(C)cc4c(-c4ccc(C(F)(F)F)nc4)n3)CCO2)ccn1 (centres unmarked) [Example 347, 4-(2,3-dimethyl-5-(6-(trifluoromethyl)pyridin-3-yl)-1,6-naphthyridin-7-yl)-2-(2-methylpyridin-4-yl)morpholine]	≤ 50 nM
